These results are taken from PMC6219668 (Oncotarget, 2018).

One data set relates to JeKo-1. Briefly: cells. The data set is classed as cell-based. Conditions: Homo sapiens; JeKo-1, MCL, dominant CDK4; read-out: IC50, mean ± SD.
The subject of another data set is Pfeiffer. Put plainly: cells. The data set is classed as cell-based. As to conditions: Homo sapiens, DLBCL, dominant CDK6, read-out: IC50, mean ± SD.
Another data set deals with KELLY. Briefly: cells. Conditions: 72 h. The data set is classed as cell-based.
The test system of data set [1] is hs944T. Put plainly: cells. The data set is classed as cell-based. As to conditions: 72 h.
Data set [2] relates to NCI-H460. Briefly: cells. In kind it is cell-based. As to conditions: Homo sapiens, NCI-H460, 72 h.
A further data set deals with HBRX1286. In kind it is in vivo. Conditions: HBRX1286, Breast, TNBC, Rb absent; 250 mg/kg qd.
The subject of a further data set is HBCx-1. The data set is classed as in vivo. Conditions: HBCx-1, Breast, HER2High, Rb absent; 125 mg/kg bid × 21.
The next data set deals with SK-MEL-30. Put plainly: cells. The data set is classed as cell-based. As to conditions: Homo sapiens, SK-MEL-30, 72 h.
The test system of data set [3] is TE-11. Put plainly: cells. In kind it is cell-based. As to conditions: Homo sapiens, TE-11, 72 h.
The next data set has as its system HBCx-6. The data set is classed as in vivo. As to conditions: HBCx-6, Breast, TNBC, Rb present; 125 mg/kg bid × 21.
Another data set relates to HCOX1290. The data set is classed as in vivo. Conditions: HCOX1290, Colorectal, Rb present; 250 mg/kg qd.
A further data set deals with NCI-H23. Briefly: cells. In kind it is cell-based. Conditions: Homo sapiens, NCI-H23, 72 h.
The subject of the next data set is TE-10. Put plainly: cells. The data set is classed as cell-based. As to conditions: Homo sapiens, TE-10, 72 h.
Another data set relates to NCI-H1792. Briefly: cells. In kind it is cell-based. Conditions: Homo sapiens, NCI-H1792, 72 h.
Data set [4] deals with A2058. Briefly: cells. In kind it is cell-based. Conditions: Homo sapiens, A2058, 72 h.
Another data set deals with KYSE450. Put plainly: cells. In kind it is cell-based. As to conditions: Homo sapiens, KYSE-450; KYSE450, 72 h.
Data set [5] has as its system TE-11. Briefly: cells. The data set is classed as cell-based. Conditions: Homo sapiens, TE-11, 72 h. The source holds these as a separate data set.
Another data set has as its system MGH049. Briefly: cells. In kind it is cell-based. As to conditions: MGH049, 72 h.
Data set [6] relates to TE-5. Put plainly: cells. In kind it is cell-based. As to conditions: Homo sapiens, TE-5, 72 h.
A further data set can be described thus: Maximum tolerated dosage. In kind it is in vivo. Conditions: mice, once daily.
For a further data set, the system named is HBCx-10. In kind it is in vivo. As to conditions: HBCx-10, Breast, TNBC, Rb absent; 125 mg/kg bid × 21.
Data set [7] has as its system NCI-H460. Put plainly: cells. In kind it is cell-based. Conditions: Homo sapiens, NCI-H460, 72 h. The source holds these as a separate data set.
Data set [8] has as its system TE-14. Put plainly: cells. The data set is classed as cell-based. As to conditions: TE-14, 72 h.
The next data set has as its system HBCx-12. The data set is classed as in vivo. Conditions: HBCx-12, Breast, TNBC, Rb present; 125 mg/kg bid × 21.
The subject of another data set is HMEX1906. The data set is classed as in vivo. Conditions: mouse, in vivo, 250 mg/kg.
Another data set concerns KYSE30. Put plainly: cells. In kind it is cell-based. As to conditions: Homo sapiens, KYSE-30; KYSE30, 72 h.
The test system of data set [9] is WM-115. Briefly: cells. The data set is classed as cell-based. As to conditions: Homo sapiens, WM-115, 72 h.
Data set [10] deals with TE-14. Briefly: cells. In kind it is cell-based. As to conditions: TE-14, 72 h. The source holds these as a separate data set.
In data set [11] the test system is TE-5. Put plainly: cells. The data set is classed as cell-based. As to conditions: Homo sapiens, TE-5, 72 h. This is another data set of the same source.
The subject of another data set is A549. Briefly: cells. The data set is classed as cell-based. Conditions: Homo sapiens, A549, 72 h.
In data set [12] the test system is SK-MEL-5. Briefly: cells. The data set is classed as cell-based. As to conditions: Homo sapiens, SK-MEL-5, 72 h.
Data set [13] relates to WM-115. Put plainly: cells. The data set is classed as cell-based. As to conditions: Homo sapiens, WM-115, 72 h. The source holds these as a separate data set.
The next data set has as its system MDA-MB-415. Put plainly: cells. In kind it is cell-based. As to conditions: Homo sapiens, MDA-MB-415, 72 h.
Another data set has as its system T-47d. Briefly: cells. The data set is classed as cell-based. Conditions: Homo sapiens, T47D, 72 h.
For the next data set, the system named is MCF-7. Briefly: cells. As to conditions: Homo sapiens, MCF7; MCF-7, 72 h. The data set is classed as cell-based.
For data set [14], the system named is hs944T. Briefly: cells. As to conditions: 72 h. The data set is classed as cell-based. The source holds these as a separate data set.
For data set [15], the system named is SK-N-SH. Put plainly: cells. In kind it is cell-based. As to conditions: Homo sapiens, 72 h.
Data set [16] concerns NCI-H1975. Briefly: cells. Conditions: Homo sapiens, NCI-H1975, read-out: Percent inhibition. In kind it is cell-based.
Data set [17] concerns SK-MEL-5. Put plainly: cells. The data set is classed as cell-based. Conditions: Homo sapiens, SK-MEL-5, 72 h. The source holds these as a separate data set.
For data set [18], the system named is A2058. Briefly: cells. As to conditions: Homo sapiens, A2058, 72 h. The data set is classed as cell-based. The source holds these as a separate data set.
Another data set deals with NCI-H3255. Briefly: cells. The data set is classed as cell-based. Conditions: Homo sapiens, NCI-H3255, 72 h.
In data set [19] the test system is SK-N-SH. Put plainly: cells. As to conditions: Homo sapiens, 72 h. The data set is classed as cell-based. This is another data set of the same source.
Data set [20] deals with NCI-H1975. Briefly: cells. The data set is classed as cell-based. Conditions: Homo sapiens, NCI-H1975, 72 h.
In the next data set the test system is HBCx-14. The data set is classed as in vivo. As to conditions: HBCx-14, Breast, TNBC, Rb absent; 125 mg/kg bid × 21.

Values joined by “and” are separate entries in the source; they are usually repeats but may differ in a detail not shown here. Identical values can stand only once.

Method for HMEX1906: Animals were housed in a temperature-
In all studies, tumor volume was calculated
For using the following formula: (length × width2)/2. Percent
Data are presented as the percent

Turning to `CC(=O)c1c(C)c2cnc(Nc3ccc(N4CCNCC4)cn3)nc2n(C2CCCC2)c1=O` [Palbociclib, reference compound], the results for the IC50 in the data set on JeKo-1 and in the data set on Pfeiffer were 72 ± 33 µM and 89 ± 32 µM, respectively.

For `CN(C)C(=O)c1cc2cnc(Nc3ccc(N4CCNCC4)cn3)nc2n1C1CCCC1` [Ribociclib, 7-cyclopentyl-2-(5-piperazin-1-yl-pyridin-2-ylamino)-7H-pyrrolo[2,3-d]pyrimidine-6-carboxylic acid dimethylamide], the IC50 was 0.3 µM in the data set with KELLY; greater than 10 µM in the data set on hs944T [1]; greater than 10 µM with NCI-H460 [2]; 1 µM with SK-MEL-30; greater than 10 µM in the data set on TE-11 [3]; greater than 10 µM in the data set on NCI-H23. Also, the IC50 is greater than 10 µM with TE-10; 0.61 µM with NCI-H1792; greater than 10 µM with A2058 [4]; greater than 10 µM in the data set on KYSE450; 4.41 µM in the data set with TE-11 [5]; 0.54 µM in the data set with MGH049. The IC50 is greater than 10 µM with TE-5 [6]; 0.62 µM in the data set on NCI-H460 [7]; greater than 10 µM in the data set with TE-14 [8]; greater than 10 µM with KYSE30; greater than 10 µM with WM-115 [9]; greater than 10 µM in the data set with TE-14 [10]. Further, the IC50 is 2.39 µM with TE-5 [11]; greater than 10 µM with A549; greater than 10 µM in the data set on SK-MEL-5 [12]; greater than 10 µM in the data set on WM-115 [13]; 0.98 µM in the data set on MDA-MB-415; 0.25 µM in the data set on T-47d. The IC50 was 0.18 µM with MCF-7; 1.62 µM in the data set with hs944T [14]; 0.27 µM in the data set on SK-N-SH [15]; 2.09 µM in the data set with SK-MEL-5 [17]; greater than 10 µM in the data set with A2058 [18]; greater than 10 µM in the data set with NCI-H3255. Further, the IC50 with SK-N-SH [19] was 9 µM; with NCI-H1975 [20], greater than 10 µM. Further, the T/C with HBRX1286 was found to be 82; in the data set with HBCx-1, 80; in the data set with HBCx-6, 64; with HCOX1290, 22; in the data set with HBCx-10, 82; with HBCx-12 it was 33. For the same compound, the T/C with HMEX1906 is given as -12; in the data set with HBCx-14 it was 92. The compound further had a maximum tolerated dosage in the data set “Maximum tolerated dosage” of 250 mg/kg. Further, in the data set with NCI-H1975 [16], the inhibition at 0.08 µM was 14%. Besides, the inhibition at 1.25 µM in the data set on NCI-H1975 [16] amounted to 42%. Also, the inhibition at 5 µM with NCI-H1975 [16] stood at 54%. Also, in the data set with NCI-H1975 [16], the inhibition at 10 µM is 61%. Also, the inhibition at […] in the data set on NCI-H1975 [16] was 20% and 28% and 37% and 49%.

As usually defined, the IC50 is the concentration at which inhibition is half-maximal. Usually inhibition stands for the share of the control response that was lost under treatment.
